This is an account of results in patent US20220409681A1, “LACTOBACILLUS SALIVARIUS LS97 AND APPLICATION THEREOF” (WECARE PROBIOTICS CO., LTD., priority 2019, published 2022).

In data set [1] the test system is Streptococcus sobrinus. Nature of the data set: Rat dental caries model: oral S. sobrinus count and Keyes caries score. Type of data set: in vivo, Wistar rats. As to the method: (§1) SPF female Wistar rats (about 3 weeks old) were obtained and housed in a barrier environment with constant temperature and humidity, with 12 h of light and 12 h of darkness. All rats were acclimated to the environment and diet in a week before experiment, and then were randomly divided into groups according to body weight. The rats were randomly divided into 4 groups according to body weight with 10 rats in each group, among which one group was set as the blank control group (blank group), one group was set as the dental caries model group (dental caries group), and two groups were set as the intervention group. The intervention groups were wiped S. sobrinus continuously for 7 days, and after confirming that S. sobrinus was successfully colonized in the rat's oral cavity, the corresponding experimental groups were wiped chlorhexidine (chlorhexidine group) and LS97 (LS97 group) continuously for 7 days respectively, and then 3 times a week. Chlorhexidine, an ionic drug with good antibacterial effect, was used as a positive control group. The cariogenic bacteria S. sobrinus and LS97 were both cultured overnight for 12 h. After adjusted to a bacterial concentration of 1×10^8 CFU/mL, 0.2 mL of bacterial suspension was wiped onto the rat molars by sterile cotton swab, and namely, the cotton swab that absorbed bacterial suspension sufficiently worked on each quarter of the rat's oral teeth for the same 15 s. During the experiment, except for the blank control group fed normal feed and drinking water, other groups were all fed cariogenic feed Diet 2000# and drinking water added with 5% sucrose, in which the main components of cariogenic feed are shown in Table 4. The experimental period was maintained for 10 weeks.
At the 3rd, 7th, and 10th weeks of the experiment (corresponding to the early, middle and late stages of the experiment, respectively), the first, second and third samplings were performed on the oral teeth of rats, and samples were spread on MRS solid medium added with vancomycin of 12 μg/mL for Streptococcus sobrinus count.
After the rat experiment was finished, the rats were killed and the rat molars were taken out. The molars were placed in a 0.4% murexide dye liquor and soaked for 12 h overnight for dyeing. After the molars were rinsed by clean water and dried naturally, the caries lesion condition of rat molars in each group was observed under a stereo microscope. Caries scoring was performed on the rat teeth by using the Keyes caries scoring method. According to Keyes' classic method for evaluating dental caries, the lesion degree of dental caries is divided into four grades: E-grade caries, caries lesion involving enamel only; Ds-grade caries, enamel caries lesion and caries lesion involving the outer dentin less than ¼; Dm-grade caries, caries lesion involving the dentin thickness within ¼ to ¾; Dx-grade caries, caries lesion involving the dentin thickness more than ¾, and the result is shown in FIG. 4.

The nature of data set [2]: Rat dental caries model: body weight. Type of data set: in vivo, Wistar rats. As to the method: as §1
[3] abbreviates: Keyes caries scoring, FIG. 4, versus dental caries model group.

SMILES strings stand for the structures.

As to `[H]/N=C(\N/C(=N/[H])NCCCCCCNC(=N)NC(=N)Nc1ccc(Cl)cc1)Nc1ccc(Cl)cc1` [Chlorhexidine], in data set [1] (setting [3]), the “Effect on Dm caries (in words)” value is listed as “not obvious”; the “Effect on E caries and Ds caries (in words)” value is given as “effectively reduced”. The “Change of the number of Streptococcus sobrinus in the oral cavity (in words)” value in data set [1] (after intervention, chlorhexidine statement refers to the third test) was “showed an increment circumstance”. In addition, the “Count of Streptococcus sobrinus in oral sampling” value (“Count of Streptococcus sobrinus” for short) in data set [1] (sampling number 1, 3rd week) was 5.53 ± 0.23 Log value. Besides, the “Count of Streptococcus sobrinus” value in data set [1] (sampling number 2, 7th week) was 4.00 ± 0.19 Log value. Besides, the “Count of Streptococcus sobrinus” value in data set [1] (sampling number 3, 10th week) is reported as 4.31 ± 0.13 Log value. Moreover, in data set [2] (10 weeks), the “Body weight of rats after the experiment” value is reported as 212.49 ± 23.86 g and the “Rat body weight increment” value came out at 147.83 ± 19.73 g. For the same compound, the “Body weight of rats before the experiment” value in data set [2] (baseline) is 60.32 ± 5.28 g.
